“Also recorded” adds a separate entry of the source.
Key:
[1] = Arterial pressure effects in anesthetized rabbits; assay type: in vivo; conditions: rabbit
Method: Animal and Homodynamic Measurements:
The experiments were performed with male rabbits weighing 3 kg, from the CECAL (Centro de Criação de Animais de Laboratório) at Fundação Oswaldo Cruz. The animals were anesthetized with sodium pentobarbital (40 mg/kg) in the ear marginal vein, and anesthesia maintenance was obtained with supplemental intravenous (i.v.) doses of 5 mg/kg as necessary. The […] were tracheomized, inserted with a polyethylene canule, and immobilized with pancuronium bromide (1 mg/kg, i.v.), with supplemental doses of 0.2 mg/kg for each hour of experiment and artificially ventilated with a mechanical fan (Rodent ventilator 7025, Ugo Basile) with a volume of 10 ml/kg and frequency from 40 to 50 incursions/min. The right femoral vein was catheterized for drug administration.
The arterial pressure was monitored through abdominal aorta catheter via the right femoral artery and connected to a quartz transductor Hewlett Packard (1290 A), which was connected to an arterial pressure processor and recorder Hewlett Packard (system 7754 with amplifier 8805 B).
The systolic (SAP) and diastolic (DAP) arterial pressures were obtained directly from the records and the average arterial pressure (AAP) was calculated by DAP's Sum with a third of the differential pressure [[…]]. The cardiac frequency was determined by counting the pressure waves, visualized with the speed increase of the recorder paper.
The cardiac debit (DC) was monitored using an electromagnetic probe, connected to a Skalar flowmeter model MDL 1401. After left thoraxatomy, between the second and third ribs, was made an incision in the pericardium and the heart was exposed to enable the visualization and dissection of the ascending aorta for installation of the electromagnetic probe. The systemic vascular resistance (SVR) was calculated as a quotient of the average arterial pressure by the cardiac debit, multiplied by a conversion factor 80 (SVR=AAP/DC×80) and expressed in dyn/seg/cm-5.
At the conclusion of the anesthetic-surgical procedures, a 15-minute period was allowed for stabilization of the homodynamic parameters. Before any pharmacological manipulation the average arterial pressure, cardiac frequency and cardiac debit measurements were obtained. These values were considered basal homodynamic values.
The results were expressed as average±standard deviation (E.P.M.) The administration effects of LASSBio 772 with regard to the basal values were analyzed through variance analysis (ANOVA) for repeated measurements. When a significant statistical difference was found in the test ANOVA, the test Newman-Keuls was used to locate the differences. The paired t test was used to analyze the phenylephrine pressure effects before and after the treatment with LASSBio 772B. Differences with p<0.05 were considered significant. All the calculations were done on the computer, using the statistic software Instat-2.0.
Arterial Pressure Effects of LASSBio 772 Administration: […]

[2] = system: muscarinic cholinergic receptors; assay: Cobaio (guinea pig) trachea contraction induced by carbacol; assay type: cell-based; conditions: 30 microM compound, carbacol 10 microM
Source text: Selectivity Assay for Protein G-Coupled, Beta-Adrenergic, Muscarinic Cholinergic and Histaminergic Bioreceptors
Determination of the Inhibitory Potency (IC50) of LASSBio 772 on Vasoconstriction of the Cobaio (Guinea Pig) Trachea
Cobaios albinos from both sexes, weighing between 400 and 600 g were used in this experiment. The animals were sacrificed by cervical displacement and posterior bleed. Then, their tracheas were removed, kept in 5 microM indometacin added Krebs-Henseleit physiologic solution and oxygenated with carbogenic mixture (95% O2 and 5% CO2), proceeding the removal of the connective and adhered adipose tissue. From these tracheas were obtained segments with 4-6 rings, that are sectioned in the opposite side of the smooth musculature, originating strips used in the contractions assay (ARAKIDA et al., J. Pharmacol. Exper. Therap., 287: 633-639, 1998). […]
After the period, the organ is treated with agonists that will induce contractions. […] The tissue viability was evaluated by contraction induction with histamine 100 microM or carbacol 10 microM. […]
The compound LASSBio 772 was evaluated in the concentration of 30 microM as for its relaxation capability in comparison to contractions induced by carbacol, muscarinic cholinergic agonist, at a 10 microM concentration.

alpha 1A subtype = molecular target: T1, alpha 1A subtype (Rattus norvegicus, UniProt P43140); assay: [3H]prazosin binding assay in rat salivary gland; conditions: for selectivity index (I.S. alpha 1B/alpha 1A): alpha 1A versus alpha 1B subtype
T1 sequence (P43140 1-466): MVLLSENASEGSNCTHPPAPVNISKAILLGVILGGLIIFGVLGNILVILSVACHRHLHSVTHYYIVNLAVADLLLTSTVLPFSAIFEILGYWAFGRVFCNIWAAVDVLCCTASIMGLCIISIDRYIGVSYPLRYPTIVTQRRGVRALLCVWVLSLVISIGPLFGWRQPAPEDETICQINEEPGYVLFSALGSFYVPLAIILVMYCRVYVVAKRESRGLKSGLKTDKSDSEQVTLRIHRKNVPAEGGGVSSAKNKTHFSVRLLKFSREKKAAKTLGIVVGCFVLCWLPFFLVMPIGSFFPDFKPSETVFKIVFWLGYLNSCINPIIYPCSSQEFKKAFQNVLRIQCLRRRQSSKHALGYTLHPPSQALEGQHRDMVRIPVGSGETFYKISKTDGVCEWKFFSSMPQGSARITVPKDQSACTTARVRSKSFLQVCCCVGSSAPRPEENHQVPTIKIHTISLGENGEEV

## COc1ccccc1N1CCN(CCc2ccc3c(c2)OCO3)CC1 [LASSBio 772, 1-(2-1,3-Benzodioxol-5-yl-ethyl)-4-(2-methoxy-phenyl)-piperazine]
[1]; 100 μg/kg i.v.
  reduction of arterial pressure: ~10%
[1]; 100 μg/kg i.v., n=5
  average arterial pressure (AAP): 79±4 mmHg
  diastolic arterial pressure (DAP): 71±4 mmHg
  systolic arterial pressure (SAP): 94±7 mmHg
[1]; i.v.
  hypotension: without however causing significant clinically hypotension
[1]; i.v., doses 1-100 μg/kg, versus basal values
  dose from which a significant hypo-tensor response was induced: ≥ 3 µg/kg
[2]
  inhibition of carbacol-induced contractions: not able to significantly inhibit the contractions; also recorded: did not present any activity
[2]; n=3
  % of Contraction: 122.1±8.6%
Alpha 1A subtype
  IC50: 0.26 nM
  selectivity indexes of alpha 1A/alpha 1D versus alpha 1B subtype and beta 2, H1 and cholinergic muscarinic receptors: at least a thousand times
  selectivity index (I.S. alpha 1B/alpha 1A): ≥ 1700
Alpha 1A subtype; listed as LASSBio-772
  selectivity index (I.S. alpha 1B/alpha 1A): 1730
Alpha 1A subtype; rat salivary gland, Cheng Prussof
  Ki: 0.14 nM
